From US20240316059A1, “PEPTIDE DRUG CONJUGATES” (Oncopeptides AB, priority 2021, published 2024)
Read-outs that look alike come from different tables or passages of the source.

Assays:
MM.1S cells = experiment: In vitro cytotoxic potency in MM.1S cell viability assay (CellTiter-Glo); assay type: cell-based, human; conditions: Homo sapiens, MM1.S, 72 h
Summary of the method: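 Log-phase MM.1S cells in supplemented RPMI 1640 were seeded at 100000 cells/mL with compound (0.2% DMSO final). After 72 h at 37 °C in CO2, viability was measured by CellTiter-Glo 2.0 luminescence.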

U937 = experiment: In vitro cytotoxicity, U937 (Histiocytic Lymphoma); assay type: cell-based; conditions: Homo sapiens, U-937, 72 h, read-out: Cytotoxicity IC50, U937
Description: (§1) All cells were cultivated in RPMI medium 1640 (IX). All media was supplemented with 10 μg/μl penicillin/streptomycin, 10% heat inactivated FBS, 0.1 mM Sodium Pyruvate, 1×MEM NEAA (ThermoFisher) and 1 mM HEPES. The DERL-2 cells had higher FBS (20%) and 40 ng/mL IL-2 was added. hPBMCs were thawed and allowed to acclimatise overnight and then stimulated with 10 μg/mL PHA-M and 40 ng/mL IL-2 for 4 hours before being exposed to test compounds. All cells, except for hPBMCs, were grown to reach log phase before being exposed to the test compounds.
(§2) Test compounds were dissolved in 100% DMSO and added to a 384 assay plate. Additional DMSO was added to maintain the same final DMSO concentration (0.2%) in all wells. 25 μL cell suspension with a concentration of 100000 cells/mL was added to each well. The cells were cultured in a CO2 incubator at 37° C. for 72 h. Plates were equilibrated to room temperature for 30 minutes before adding 20 μL CellTiter-Glo® 2.0 (Promega) reagent to all wells. The plate was then allowed to stabilize for 20 minutes before recording the luminescence (Em filter 700 nm) in an Envision plate reader.

EJM = experiment: In vitro cytotoxicity, EJM (Multiple Myeloma); assay type: cell-based; conditions: Homo sapiens, 72 h, read-out: Cytotoxicity IC50, EJM
Description: as §1, §2

KMS-12-BM = experiment: In vitro cytotoxicity, KMS-12-BM (Multiple Myeloma); assay type: cell-based; conditions: Homo sapiens, 72 h, read-out: Cytotoxicity IC50, KMS-12-BM
Description: as §1, §2

RPMI-8226 = experiment: In vitro cytotoxicity, RPMI-8226 (Multiple Myeloma, resistant); assay type: cell-based; conditions: Homo sapiens, RPMI-8226, 72 h, read-out: Cytotoxicity IC50, RPMI-8226
Summary of the method: (§3)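 Viability is measured by ATP-based luminescence (CellTiter-Glo 2.0) following a 72 h incubation at 37 °C. Cells grow in RPMI 1640 with 10% heat-inactivated FBS; DERL-2 receives 20% FBS and 40 ng/mL IL-2. DMSO is held at 0.2% final.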

SK-MM-1 = experiment: In vitro cytotoxicity, SK-MM-1 (Plasma Cell Leukemia); assay type: cell-based; conditions: Homo sapiens, 72 h, read-out: Cytotoxicity IC50, SK-MM-1
Description: as §1, §2

DOHH-2 = experiment: In vitro cytotoxicity, DOHH-2 (B Cell Lymphoma); assay type: cell-based; conditions: Homo sapiens, DOHH-2, 72 h, read-out: Cytotoxicity IC50, DOHH-2
Description: as §1, §2

HG-3 = experiment: In vitro cytotoxicity, HG-3 (Chronic Lymphocytic Leukemia); assay type: cell-based; conditions: Homo sapiens, HG-3, 72 h, read-out: Cytotoxicity IC50, HG-3
Description: as §1, §2

SC-1 = experiment: In vitro cytotoxicity, SC-1 (B cell Lymphoma); assay type: cell-based; conditions: Homo sapiens, SC-1, 72 h, read-out: Cytotoxicity IC50, SC-1
Summary of the method: as §3

Toledo = experiment: In vitro cytotoxicity, Toledo (Diffuse Large B Cell Lymphoma); assay type: cell-based; conditions: Homo sapiens, 72 h, read-out: Cytotoxicity IC50, Toledo
Description: as §1, §2

SUP-T1 = experiment: In vitro cytotoxicity, SUP-T1 (T cell Lymphoma); assay type: cell-based; conditions: Homo sapiens, SUP-T1, 72 h, read-out: Cytotoxicity IC50, SUP-T1
Description: as §1, §2

[1] = In vitro cytotoxicity, BJ fibroblasts (normal cells); assay type: cell-based; conditions: human, CellTiter-Glo 2.0
Description: as §1, §2

[2] = test system: SU-DHL-4 human lymphoma cell line; experiment: In ovo chicken embryo xenograft model, tumour weight; assay type: in vivo; conditions: 100 μL injected day 11, 13, 15, 17, tumours weighed day 18
Description: Methods: Inoculation of Fertilized White Leghorn eggs was performed with 3×10^6 SU-DHL-4 tumour cells on day 9 (post-fertilisation). Viable eggs were injected with 100 μL of either Example compound 1 (8.4 uM (0.008 mg/kg), 33.5 uM (0.033 mg/kg), 167.5 uM (0.164 mg/kg)), bendamustine (8.4 uM (0.005 mg/kg), 33.5 uM (0.02 mg/kg), 167.5 uM (0.1 mg/kg)) or vehicle on day 11, 13, 15 and 17. On day 18, tumours were removed and weighed.

[3] = test system: DNA prepared from MM.1S cells (nuclear HPRT and mitochondrial DNA); experiment: Direct DNA damage, PCR amplification of treated DNA (HPRT and mtDNA primers); assay type: biochemical, human; conditions: 0.25 μM compound, 30 minutes, 37° C., 1 μg DNA
Summary of the method: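 Genomic DNA isolated from MM.1S cells, 1 μg treated with 0.25 μM compound for 30 min at 37 °C, DMSO as control. Long-range PCR on 20 ng treated DNA yielding 10.4 kb (HPRT) or 8.9 kb (mtDNA) fragments; damage assessed by loss of product on 1% agarose gel.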

[4] = read-out: Cytotoxicity IC50, MM.1S

Row | Structure (SMILES) | IC50 (MM.1S cells; [4]) | IC50 (MM.1S cells; read-out: MM.1S IC50) | IC50 (U937) | IC50 (EJM) | IC50 (KMS-12-BM) | IC50 (RPMI-8226) | IC50 (SK-MM-1) | IC50 (DOHH-2) | IC50 (HG-3) | IC50 (SC-1) | IC50 (Toledo) | IC50 (SUP-T1) | IC50 at 72 h [1] | Tumour reduction compared to vehicle ([2]; 33.5 μM) | Tumour reduction compared to vehicle ([2]; 167.5 μM) | DNA damage on nuclear and mitochondrial DNA (PCR band) [3] | Tumour reduction compared to vehicle ([2]; 8.4 μM)
1 | Cn1c(CCCC(=O)O)nc2cc(N(CCCl)CCCl)ccc21 [Bendamustine, bendamustine, reference compound] | 24000 nM | 24000 nM | 27100 nM | 64600 nM | 27500 nM | 111000 nM | 73500 nM | 10700 nM | 25800 nM | 25100 nM | 12500 nM | 33500 nM | > 599000 nM | 30% | 76% | no or very minor effect on DNA damage | 
2 | CCOC(=O)[C@H](CC(C)C)NC(=O)[C@@H](N)CCc1nc2cc(N(CCCl)CCCl)ccc2n1C [Example 1, Ethyl (2S)-2-[[(2S)-2-amino-4-[5-[bis(2-chloroethyl)amino]-1-methyl-benzimidazol-2-yl]butanoyl]amino]-4-methyl-pentanoate] | 6.8 nM | 6.8 nM | 9.8 nM | 27.1 nM | 7.9 nM | 90.6 nM | 34.7 nM | 4.2 nM | 25.7 nM | 13.3 nM | 4.5 nM | 12.7 nM | 1070 nM | 70% | 82% | strong DNA damaging effect | 38%
